From patent US8729091B2, “4-phenoxy-nicotinamide or 4-phenoxy-pyrimidine-5-carboxamide compounds” (Hoffmann-La Roche Inc., priority 2010, dated 2014) come the findings set out here.

SMILES strings stand for the structures.

The target in the test is T1, human GPBAR1 receptor (Homo sapiens, UniProt Q8TDU6).
T1 construct: expressed in transfected cells
T1 sequence (Q8TDU6 1-330): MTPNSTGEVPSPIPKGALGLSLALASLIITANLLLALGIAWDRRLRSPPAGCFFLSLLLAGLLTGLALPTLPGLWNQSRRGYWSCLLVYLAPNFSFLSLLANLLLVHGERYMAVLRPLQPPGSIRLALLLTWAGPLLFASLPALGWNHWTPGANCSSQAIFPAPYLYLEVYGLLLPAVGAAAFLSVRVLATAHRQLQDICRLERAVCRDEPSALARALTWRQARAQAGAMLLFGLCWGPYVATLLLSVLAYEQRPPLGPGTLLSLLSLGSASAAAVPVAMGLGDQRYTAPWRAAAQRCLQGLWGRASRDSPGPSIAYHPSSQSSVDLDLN
Description: functional cAMP assay in CHO-dhfr(minus) cells expressing human GPBAR1 receptors. It counts as cell-based. Particulars: cAMP increase (TR-FRET) in CHO-dhfr(minus) cells expressing human GPBAR1; compounds incubated 30 min at 30° C. Put shortly:
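Agonist cAMP read-out: stable GPBAR1 CHO-dhfr− clone, 30 min compound exposure at 30° C following 30 min IBMX (1 mM) preincubation in Krebs Ringer bicarbonate. Time-resolved energy-transfer detection gives EC50; parental CHO cells serve as counter-screen.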
(Cyclic AMP is a second messenger, typically raised through Gs and lowered through Gi signalling.)
As a reminder, the EC50 is the concentration at which the effect is half-maximal. High values mean lower potency in that assay, low ones higher potency in that assay. Regarding `CC(C)(Oc1cc(Cl)c(Oc2ccncc2C(=O)N2CCN(C3CC3)c3ccccc32)cc1Cl)C(=O)O` [Example 61, 2-{2,5-Dichloro-4-[3-(4-cyclopropyl-3,4-dihydro-2H-quinoxaline-1-carbonyl)-pyridin-4-yloxy]-phenoxy}-2-methyl-propionic acid], a half-maximal effect (EC50) was put at 400 nM. For `O=C(Nc1nnn[nH]1)c1cc(Cl)c(Oc2ccncc2C(=O)N2CCN(C3CC3)c3ccccc32)cc1Cl` [Example 38, 2,5-Dichloro-4-[3-(4-cyclopropyl-3,4-dihydro-2H-quinoxaline-1-carbonyl)-pyridin-4-yloxy]-N-(1H-tetrazol-5-yl)-benzamide], the EC50 was found to be 40 nM. To `O=C(c1cnccc1Oc1cc(Cl)ccc1Cl)N1CCN(CC2CC2)c2ccccc21` [Example 6, (4-Cyclopropylmethyl-3,4-dihydro-2H-quinoxalin-1-yl)-[4-(2,5-dichloro-phenoxy)-pyridin-3-yl]-methanone] belongs 3 nM. With `COC(=O)c1cc(Cl)c(Oc2ccncc2C(=O)N2CCN(C3CC3)c3ccccc32)cc1C(=O)OC` [Example 28, 4-Chloro-5-[3-(4-cyclopropyl-3,4-dihydro-2H-quinoxaline-1-carbonyl)-pyridin-4-yloxy]-phthalic acid dimethyl ester], the 50% effective concentration (EC50) amounted to 4 nM. This EC50 and that of the molecule before are within 1.5-fold of each other. The value for `COC(=O)CNC(=O)c1cc(Cl)c(Oc2cc(C)ncc2C(=O)N2CCN(C3CC3)c3ccccc32)cc1Cl` [Example 69, {2,5-Dichloro-4-[5-(4-cyclopropyl-3,4-dihydro-2H-quinoxaline-1-carbonyl)-2-methyl-pyridin-4-yloxy]-benzoylamino}-acetic acid methyl ester] was 40 nM.

As for `O=C(c1c[n+]([O-])ccc1Oc1cc(Cl)ccc1Cl)N1CCN(C2CC2)c2ccccc21` [Example 75, (4-Cyclopropyl-3,4-dihydro-2H-quinoxalin-1-yl)-[4-(2,5-dichloro-phenoxy)-1-oxy-pyridin-3-yl]-methanone], the midpoint of the response, the EC50, lay at 10 nM.

`COC(=O)c1ccc(NC(=O)c2cc(Cl)c(Oc3ccncc3C(=O)N3CCN(C4CC4)c4ccccc43)cc2Cl)cc1` [Example 43, 4-{2,5-Dichloro-4-[3-(4-cyclopropyl-3,4-dihydro-2H-quinoxaline-1-carbonyl)-pyridin-4-yloxy]-benzoylamino}-benzoic acid methyl ester]: the EC50 was 100 nM. Against the preceding molecule, the EC50 is about 10-fold higher.

In turn, `O=C(c1cnccc1Oc1cc(Cl)c(CO)cc1Cl)N1CCN(C2CC2)c2ccccc21` [Example 55, (4-Cyclopropyl-3,4-dihydro-2H-quinoxalin-1-yl)-[4-(2,5-dichloro-4-hydroxymethyl-phenoxy)-pyridin-3-yl]-methanone] had an EC50 of 3 nM. To `COC(=O)CN(C)C(=O)c1cc(Cl)c(Oc2ccncc2C(=O)N2CCN(C3CC3)c3ccccc32)cc1Cl` [Example 31, ({2,5-Dichloro-4-[3-(4-cyclopropyl-3,4-dihydro-2H-quinoxaline-1-carbonyl)-pyridin-4-yloxy]-benzoyl}-methyl-amino)-acetic acid methyl ester] belongs 100 nM. To `O=C(O)CCCNC(=O)c1cc(Cl)c(Oc2ccncc2C(=O)N2CCN(C3CC3)c3ccccc32)cc1Cl` [Example 40, 4-{2,5-Dichloro-4-[3-(4-cyclopropyl-3,4-dihydro-2H-quinoxaline-1-carbonyl)-pyridin-4-yloxy]-benzoylamino}-butyric acid] belongs 200 nM; to `CNc1cc(F)c(F)cc1N(C)C(=O)c1cnccc1Oc1cc(Cl)ccc1Cl` [Example 21, 4-(2,5-Dichloro-phenoxy)-N-(4,5-difluoro-2-methylamino-phenyl)-N-methyl-nicotinamide], 400 nM. With `Cc1cc(Oc2cc(Cl)c(Br)cc2Cl)c(C(=O)N2CCN(C3CC3)c3ccccc32)cn1` [Example 64, [4-(4-Bromo-2,5-dichloro-phenoxy)-6-methyl-pyridin-3-yl]-(4-cyclopropyl-3,4-dihydro-2H-quinoxalin-1-yl)-methanone], the EC50 stood at 20 nM. To `O=C(c1cc(Cl)c(Oc2ccncc2C(=O)N2CCN(C3CC3)c3ccccc32)cc1Cl)N(CCO)CCO` [Example 50, 2,5-Dichloro-4-[3-(4-cyclopropyl-3,4-dihydro-2H-quinoxaline-1-carbonyl)-pyridin-4-yloxy]-N,N-bis-(2-hydroxy-ethyl)-benzamide] belongs 1100 nM; to `CCOC(=O)CCNC(=O)c1cc(Cl)c(Oc2cc(C)ncc2C(=O)N2CCN(C3CC3)c3ccccc32)cc1Cl` [Example 67, 3-{2,5-Dichloro-4-[5-(4-cyclopropyl-3,4-dihydro-2H-quinoxaline-1-carbonyl)-2-methyl-pyridin-4-yloxy]-benzoylamino}-propionic acid ethyl ester], 20 nM; to `O=C(c1c[n+]([O-])ccc1Oc1cc(Cl)ccc1Cl)N1CCCc2ccccc21` [Example 10, [4-(2,5-Dichloro-phenoxy)-1-oxy-pyridin-3-yl]-(3,4-dihydro-2H-quinolin-1-yl)-methanone], 700 nM. To `CN(C(=O)c1cnccc1Oc1cc(Cl)ccc1Cl)c1cc(F)c(Cl)cc1N(C)C1CC1` [Example 25, N-[4-Chloro-2-(cyclopropyl-methyl-amino)-5-fluoro-phenyl]-4-(2,5-dichloro-phenoxy)-N-methyl-nicotinamide] belongs 1700 nM; to `CN(C)c1ccccc1N(C)C(=O)c1cnccc1Oc1cc(Cl)ccc1Cl` [Example 16, 4-(2,5-Dichloro-phenoxy)-N-(2-dimethylamino-phenyl)-N-methyl-nicotinamide], 40 nM; to `CN(CC(=O)O)C(=O)c1cc(Cl)c(Oc2ccncc2C(=O)N2CCN(C3CC3)c3ccccc32)cc1Cl` [Example 32, ({2,5-Dichloro-4-[3-(4-cyclopropyl-3,4-dihydro-2H-quinoxaline-1-carbonyl)-pyridin-4-yloxy]-benzoyl}-methyl-amino)-acetic acid], 900 nM.

As to `CN(CCS(=O)(=O)O)C(=O)c1cc(Cl)c(Oc2ccncc2C(=O)N2CCN(C3CC3)c3ccccc32)cc1Cl` [Example 36, 2-({2,5-Dichloro-4-[3-(4-cyclopropyl-3,4-dihydro-2H-quinoxaline-1-carbonyl)-pyridin-4-yloxy]-benzoyl}-methyl-amino)-ethanesulfonic acid], a half-maximal effect (EC50) was put at 300 nM.

`O=C(c1cnccc1Oc1cc(Cl)ccc1Cl)N1CCCc2cc(F)c(F)cc21` [Example 2, [4-(2,5-Dichloro-phenoxy)-pyridin-3-yl]-(6,7-difluoro-3,4-dihydro-2H-quinolin-1-yl)-methanone] gave an EC50 of 100 nM. Against the preceding molecule, the EC50 is about 3-fold lower.

As for `Cc1cc(Oc2cc(Cl)c(C(=O)NCCC(=O)O)cc2Cl)c(C(=O)N2CCN(C3CC3)c3ccccc32)cn1` [Example 68, 3-{2,5-Dichloro-4-[5-(4-cyclopropyl-3,4-dihydro-2H-quinoxaline-1-carbonyl)-2-methyl-pyridin-4-yloxy]-benzoylamino}-propionic acid], the 50% effective concentration (EC50) came to 200 nM. For `Cc1cc(Oc2cc(Cl)c(C(=O)NCC(=O)O)cc2Cl)c(C(=O)N2CCN(C3CC3)c3ccccc32)cn1` [Example 70, {2,5-Dichloro-4-[5-(4-cyclopropyl-3,4-dihydro-2H-quinoxaline-1-carbonyl)-2-methyl-pyridin-4-yloxy]-benzoylamino}-acetic acid], the midpoint of the response, the EC50, lay at 400 nM.
